# From paper PMC6384891, “An automated microliter-scale high-throughput screening system (MSHTS) for real-time monitoring of protein aggregation using quantum-dot nanoprobes” (Scientific Reports, 2019)
# Where two headings read alike, the source gives them in different places.
# B1: ERp57: chaperone (protein, UniProt P30101 25-505, looked up)
# Protein disulfide-isomerase A3: SDVLELTDDNFESRISDTGSAGLMLVEFFAPWCGHCKRLAPEYEAAATRLKGIVPLAKVDCTANTNTCNKYGVSGYPTLKIFRDGEEAGAYDGPRTADGIVSHLKKQAGPASVPLRTEEEFKKFISDKDASIVGFFDDSFSEAHSEFLKAASNLRDNYRFAHTNVESLVNEYDDNGEGIILFRPSHLTNKFEDKTVAYTEQKMTSGKIKKFIQENIFGICPHMTEDNKDLIQGKDLLIAYYDVDYEKNAKGSNYWRNRVMMVAKKFLDAGHKLNFAVASRKTFSHELSDFGLESTAGEIPVVAIRTAKGEKFVMQEEFSRDGKALERFLQDYFDGNLKRYLKSEPIPESNDGPVKVVVAENFDEIVNNENKDVLIEFYAPWCGHCKNLEPKYKELGEKLSKDPNIVIAKMDATANDVPSPYEVRGFPTIYFSPANKKLNPKKYEGGRELSDFISYLQREATNPPVIQEEKPKKKKKAQEDL
# B2: calreticulin (protein, UniProt P27797 18-417, looked up)
# Calreticulin: EPAVYFKEQFLDGDGWTSRWIESKHKSDFGKFVLSSGKFYGDEEKDKGLQTSQDARFYALSASFEPFSNKGQTLVVQFTVKHEQNIDCGGGYVKLFPNSLDQTDMHGDSEYNIMFGPDICGPGTKKVHVIFNYKGKNVLINKDIRCKDDEFTHLYTLIVRPDNTYEVKIDNSQVESGSLEDDWDFLPPKKIKDPDASKPEDWDERAKIDDPTDSKPEDWDKPEHIPDPDAKKPEDWDEEMDGEWEPPVIQNPEYKGEWKPRQIDNPDYKGTWIHPEIDNPEYSPDPSIYAYDNFGVLGLDLWQVKSGTIFDNFLITNDEAYAEEFGNETWGVTKAAEKQMKDKQDEEQRLKEEEEDKKRKEEEEAEDKEDDEDKDEDEEDEEDKEEDEEEDVPGQAKDEL
# notes: chaperone
# Columns and labels:
# Type in all cases: biochemical
# Aβ42 [1] = molecular target: T1, Aβ42 (Homo sapiens, UniProt P05067); assay: manual MSHTS system, Aβ aggregation inhibition
# T1 construct: Human Aβ42 (4349-v, Peptide Institute); purchased Peptide Institute 4349-v
# Experimental: The automated MSHTS system used was based on the method described in the Supplementary Methods. In this study, EC50 values of the plant crude extract library and the compound library were measured by the automated MSHTS system and the manual MSHTS system[19],[20], respectively. All fluorescence micrograph images were taken using a 4x objective in the MSHTS systems. […]
# concentrations of RA were incubated with 30 µM A β and 30 nM QD 655-labeled Aβ or QD605-labeled Aβ in a 1536-well plate according to our previous reports1,5. Fluorescence micrographs […]
# presence of 600 and 120 µM RA.
# (1 picture or pasted object on this page, not shown here) […]
# (§1) QDAβ were incubated with various concentrations of chaperones i n a 1536-well plate for 24 h at 37 ° C and observed by fluorescence microscopy. C, E, and P indicate CRT , ERp57, and PDI, respectively. EC50 and the SD values were determined from the micrographs of three independent
# Aβ = molecular target: T2, Aβ (Homo sapiens, UniProt P05067); assay: ThT assay of Aβ aggregation
# T2 construct: Human Aβ42 (4349-v, Peptide Institute); purchased Peptide Institute 4349-v
# Experimental: The ThT assay was conducted according to the method of Levine[10] modified in our laboratory.
# tau MBD fragment = molecular target: T3, tau MBD fragment (Mus musculus, UniProt P10637); assay: MSHTS system, tau aggregation inhibition with QDTau nanoprobe; settings: 10 µM tau, 50 nM QDTau, 10 µM heparin, 10 mM DTT, 24 h at 37 °C
# T3 construct: added N-terminal methionine (from NdeI site) (N); made in house; host or cells: E. coli Rosetta (DE3) pLys, pET-21a(+)
# Text: In this study, we used the microtubule-binding domain (MBD) fragment of 4-repeat tau (Fig. 4a) to image tau aggregation. First, we examined the aggregated condition of tau in the presence of heparin, which formed paired helical-like filaments under physiological conditions in vitro, according to early reports[24],[25]. […] Since 4-repeat tau contains two Cys residues (C222 and C253), it may be necessary for aggregation to occur, to inhibit intramolecular disulfide crosslinking, as was reported in a previous report. […] When 10 μM tau was incubated in the presence of 10 mM DTT, the SD value reached a maximum (Supplementary Fig. S10c,d), so we decided to observe aggregation using 10 μM tau. […] We compared tau and Aβ aggregates by TEM observation. The morphology of tau and Aβ fibrils was difficult to distinguish (Fig. 4b). […] We also confirmed by TEM observation that the aggregation of tau and Aβ contained QD nanoprobes (Fig. 4d). These aggregations were directly observed by confocal microscopy in real time (Fig. 4e). […] The imaging method using a QD nanoprobe without a drying step as in TEM observation may be suitable for detailed observation of aggregate shapes in solution.
# Supplementary Fig. S11 Inhibition of tau aggregation by RA (a) and spearmint extract (b). 10 µM tau, 50 nM QDTau, 10 µM heparin, 10 mM DTT were incubated with various concentrations of RA […]
# for 24 h at 37 ° C and observed by fluorescence microscopy. EC50 and the SD values were determined from the micrographs of three independent wells.
# (1 picture or pasted object on this page, not shown here)
# as §1, with “Supplementary Fig. S12 Inhibition of tau and Aβ aggregation by chaperones. 10 µM tau, 50 nM QDTau, 10 µM heparin, 10 mM DTT were incubated with various concentrations of chaperon es in a 1536-well plate for 24 h at 37 °C and observed by fluorescence microscopy. 30 µM Aβ , 30 nM QDAβ” for “QDAβ”
# Aβ42 [2] = molecular target: T1, Aβ42; assay: automated MSHTS system, Aβ aggregation inhibition imaged with QDAβ nanoprobe
# Experimental: An outline of the automated MSHTS system developed in this study is as follows (Fig. 1e). First, sample solutions, such as natural extracts and/or chemical compounds, were diluted stepwise in a 384-well plate. The diluted samples in this plate were injected into a 1536-well plate at 2.5 µl per well (Supplementary Fig. S6a). […] The 1536-well plate was sealed, and each well was imaged by a fluorescence microscope system. After incubation to induce aggregation for 24 h at 37 °C, each well was imaged by a fluorescence microscope system. The images were analyzed to determine the SD values of fluorescence intensity of each pixel. The half-maximal effective concentration (EC50) was estimated from the SD values according to our previous method.
# The automated MSHTS system used was based on the method described in the Supplementary Methods. In this study, EC50 values of the plant crude extract library and the compound library were measured by the automated MSHTS system and the manual MSHTS system[19],[20], respectively. All fluorescence micrograph images were taken using a 4x objective in the MSHTS systems.
# Automated MSHTS system–sample preparation and mixing with Aβ
# Sample preparation was carried out using Automated Workstation JANUS G3 (Perkin Elmer).
# To make a dilution series of samples, dilution buffer (10%EtOH, 1×PBS) was aspirated ( asp. speed:
# 20 µl/s) using a conductive chip that can detect liquid level and injected (dsp. height: 0.75 mm, dsp. speed: 10 µl/s) into each well of a 384-well plate (384 Hard-shell micro plate HSP3951, BIO-RAD) without wells for injecting stoc k sample solution. Stock sample solutions were prepared, and were injected manually into the vacant wells of the 384-well plate. As a control without any inhibitor, dilution buffer alone was injected into the well instead of stock sample solution. The stock sample solution or control solution was aspirated (asp. height: 2 mm, asp. speed: 10 µl/s), injected (dsp. height: 4 mm, dsp. speed: 10 µl/s) into the next well containing the dilution buffer, and mixed by pipetting (asp. height: 2 mm, dsp. height: 4 m m , mix speed: 25 µl/s, mix cycles: 5). This dilution st ep was repeated five times, so that si x dilution series were prepared for each sample. The diluted samples in the 384-well plate were aspirated using a 384-chip head (asp. height: 1 mm, asp. speed:
# 3 µl/s) and injected (quadruplicate) (dsp. height: 1 mm, dsp. speed: 10 µl/s) into a 1536-well plate (1536 well FIA black plate, Greiner Bio-One) at 2.5 µl per well. […]
# After centrifugation in a multi-well plate centrifuge, the 1536-well plate was observed by an inverted fluorescence microscope system (ECLIPSE Ti-E, Nikon) equipped with a color CCD camer a (DS-Ri2, Nikon). […]
# [3] = compound library, Aβ aggregation, read-out: EC50 by MSHTS system (MA), Fig. 3
# [4] = screening of compound library by MSHTS
# [5] = 1st screening, read-out: EC50 [µM] by MSHTS system, Supplementary Table S2 (converted)
# [6] = tropolone derivatives, read-out: ThT [µM], EC50, Supplementary Table S4 (converted)
# [7] = 2nd screening, tropolone derivatives, read-out: EC50 [µM] by MSHTS system, Supplementary Table S3 (converted)
# [8] = Aβ aggregation, read-out: EC50 by ThT assay (TA), Fig. 3
# [9] = 30 µM Aβ, 30 nM QDAβ, 24 h at 37 °C, read-out: EC50 (μM) Aβ
# T3 sequence (P10637 with tags, fused parts or gaps isoform P10637-5 limits assumed): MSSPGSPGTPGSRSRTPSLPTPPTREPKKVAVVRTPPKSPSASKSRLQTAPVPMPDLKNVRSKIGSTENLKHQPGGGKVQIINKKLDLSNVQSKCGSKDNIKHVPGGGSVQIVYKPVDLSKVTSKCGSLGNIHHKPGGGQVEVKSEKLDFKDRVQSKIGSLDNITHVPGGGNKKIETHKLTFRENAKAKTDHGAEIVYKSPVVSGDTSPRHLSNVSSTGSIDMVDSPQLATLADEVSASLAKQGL
# T2 sequence (P05067 672-713 limits assumed): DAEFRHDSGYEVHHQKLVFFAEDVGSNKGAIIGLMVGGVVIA
# T1 sequence (P05067 672-713 limits assumed): as above
molecule,measurement,setting,value
COc1ccc(-c2ccc([N+](=O)[O-])cc2)ccc1=O [MO-011],EC50,Aβ42 [1]; [3],200 ± 66 µM
same,Aβ aggregation inhibitory activity (in words),Aβ42 [1]; [4],active
Oc1cc2ccccc2cc1O [MO-038],EC50,Aβ42 [1]; [5],31.4 µM
same,Aβ aggregation inhibitory activity (in words),Aβ42 [1]; [4],active
N#Cc1cccc(/N=N/c2ccc(O)c(=O)cc2)c1 [TR-027],EC50,Aβ; [6],83 µM
same,EC50,Aβ42 [1]; [7],38.7 µM
COc1ccc(-c2cccc([N+](=O)[O-])c2)ccc1=O [MO-007],EC50,Aβ42 [1]; [3],144 ± 62 µM
same,Aβ aggregation inhibitory activity (in words),Aβ42 [1]; [4],active
N#Cc1ccc(/N=N/c2ccc(O)c(=O)cc2)cc1C(F)(F)F [TR-007],EC50,Aβ; [8],4.86 ± 0.9 µM
same,EC50,Aβ42 [1]; [7],13.9 µM
"O=C(/C=C/c1ccc(O)c(O)c1)O[C@H](Cc1ccc(O)c(O)c1)C(=O)O [RA, rosmarinic acid]",EC50 of tau aggregation inhibition (in words),tau MBD fragment,could not be determined
same,EC50,"Aβ42 [2]; 25 µM Aβ, 25 nM QDAβ, 1536-well plate, 24 h at 37 °C, average of 61 sets, read-out: EC50 of Aβ aggregation inhibition, positive control",26.9 ± 4.57 µM
same,"Aβ aggregation inhibition at 120 µM, mixed by pipetting 10 times","Aβ42 [2]; 120 µM, pipetting 10 times",did not inhibit
same,"Aβ aggregation inhibition at 120 µM, mixed by pipetting three or five times","Aβ42 [2]; 120 µM, pipetting three or five times",inhibited
same,Aβ aggregation at 300 and 60 µM,"Aβ42 [2]; 300 and 60 µM, 25 µM Aβ, 24 h at 37 °C",inhibited
same,Aβ aggregation at 600 and 120 µM,"Aβ42 [1]; 600 and 120 µM, 30 µM Aβ, 30 nM QD655- or QD605-labeled Aβ",inhibited
O=C1C=CC(=O)C=C1 [MO-100],Aβ aggregation inhibitory activity (in words),Aβ42 [1],active
same,EC50,Aβ42 [1],56 µM
CN(C)c1ccc(B(O)O)cc1 [MO-074],EC50,Aβ42 [1]; [5],53.1 µM
same,Aβ aggregation inhibitory activity (in words),Aβ42 [1]; [4],active
O=c1ccc(/N=N/c2ccc([N+](=O)[O-])cc2)ccc1O [TR-001],EC50,Aβ42 [1]; [3],258 µM
O=c1ccc(/N=N/c2cc(C(F)(F)F)cc(C(F)(F)F)c2)ccc1O [TR-004],Aβ aggregation inhibitory activity (in words),Aβ42 [1]; [4],no activity
O=c1ccc(/N=N/c2cccc([N+](=O)[O-])c2)ccc1O [TR-002],EC50,Aβ42 [1]; [7],232 µM
O=c1cccccc1O [MO-073],EC50,Aβ; [8],1610 µM
O=c1ccc(/N=N/c2cc([N+](=O)[O-])cc([N+](=O)[O-])c2)ccc1O [TR-003],EC50,Aβ; [6],18.4 µM
same,EC50,"Aβ42 [1]; tropolone derivatives, read-out: MSHTS [µM], EC50, Supplementary Table S4",6.6 µM
Nc1ccc(O)c(=O)cc1 [MO-009],EC50,Aβ; [6],87.6 µM
same,EC50,Aβ42 [1]; [5],19.1 µM
same,Aβ aggregation inhibitory activity (in words),Aβ42 [1]; [4],active
O=c1ccc(-c2ccc([N+](=O)[O-])cc2)ccc1O [MO-010],EC50,Aβ; [8],144 ± 29 µM
same,EC50,Aβ42 [1]; [5],52.5 µM
same,Aβ aggregation inhibitory activity (in words),Aβ42 [1]; [4],active
Protein disulfide isomerase [PDI],EC50,tau MBD fragment,12.7 ± 4.6 µM
same,EC50,Aβ42 [1]; [9],1 ± 0.206 µM
O=c1ccc(-c2cccc([N+](=O)[O-])c2)ccc1O [MO-006],EC50,Aβ; [6],75 µM
O=Nc1ccc(O)c(=O)cc1 [MO-020],EC50,Aβ; [8],152 ± 15 µM
same,EC50,Aβ42 [1]; [3],154 ± 23 µM
same,Aβ aggregation inhibitory activity (in words),Aβ42 [1]; [4],active
B1,EC50,tau MBD fragment,4.79 ± 1.19 µM
same,EC50,Aβ42 [1]; [9],0.321 ± 0.073 µM
B2,EC50,tau MBD fragment,0.843 ± 0.047 µM
same,EC50,Aβ42 [1]; [9],0.191 ± 0.04 µM
